This assay concerns the target T1, GO (Homo sapiens, UniProt Q9UJM8).
T1 sequence (Q9UJM8 1-370): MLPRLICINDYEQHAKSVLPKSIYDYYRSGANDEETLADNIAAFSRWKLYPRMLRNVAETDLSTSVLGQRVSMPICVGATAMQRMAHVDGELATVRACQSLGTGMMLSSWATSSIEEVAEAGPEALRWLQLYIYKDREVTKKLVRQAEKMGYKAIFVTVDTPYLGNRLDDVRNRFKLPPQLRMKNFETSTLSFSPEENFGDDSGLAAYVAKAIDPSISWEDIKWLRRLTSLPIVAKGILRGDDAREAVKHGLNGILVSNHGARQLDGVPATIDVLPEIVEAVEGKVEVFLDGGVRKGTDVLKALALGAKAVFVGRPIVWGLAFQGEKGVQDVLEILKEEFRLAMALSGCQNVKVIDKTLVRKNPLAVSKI
As to the kind of experiment: GO Enzymatic Assay (Assay 1). The format is biochemical. Further details: purchased Novus Biologicals NBP1-72412. As for the experimental part:
Assay 1: GO Enzymatic Assay
GO was incubated with its substrate, glycolate, in 50 mM potassium phosphate buffer, pH 7. […] The enzyme was optimized and the kinetics was determined.
Compound inhibition was determined by adding various concentrations of inhibitors in the GO enzyme assay. The IC50 value for each measured compound was generated from sigmoidal dose-response (variable slope) curves with GraphPad Prism software (GraphPad Software, Inc., San Diego, Calif.) using the percent inhibition of GO activity relative to DMSO control.

Setting [1] is: human GO, glycolate substrate, pH 7, percent inhibition relative to DMSO control, read-out: Range of IC50 values calculated from the enzymatic assays (Assay 1).
Setting [2] is: Table 4, class symbols without asterisk, GO Enzymatic Assay (Assay 1), read-out: Range.

Consider 31 compounds from patent US20230088214A1, “GLYCOLATE OXIDASE INHIBITORS FOR THE TREATMENT OF DISEASE” (BIOMARIN PHARMACEUTICAL INC., priority 2019, published 2023).

Like-named read-outs stand apart in the source and are kept apart here.

Turning to `C[N+](C)(C)CCOC(=O)c1[nH]nnc1Sc1ccc(-c2ccc(OC(F)(F)F)cc2)cc1` [Compound 38, N,N,N-trimethyl-2-((4-((4′-(trifluoromethoxy)-[1,1′-biphenyl]-4-yl)thio)-1H-1,2,3-triazole-5-carbonyl)oxy)ethan-1-aminium iodide], the IC50 under setting [1] was 1000 to 10000 nM.
`O=C(O)c1[nH]nnc1O[C@H]1CC[C@H](c2ccc(OC(F)(F)F)cc2)CC1` [Compound 272-1, 4-(((trans)-4-(4-(trifluoromethoxy)phenyl)cyclohexyl)oxy)-1H-1,2,3-triazole-5-carboxylic acid]: the IC50 under setting [1] is less than 100 nM.
Consider `O=C(O)c1[nH]nnc1O[C@H]1CC[C@@H](c2ccc(OC(F)(F)F)cc2)CC1` [Compound 272-2, 4-(((cis)-4-(4-(trifluoromethoxy)phenyl)cyclohexyl)oxy)-1H-1,2,3-triazole-5-carboxylic acid], for which the IC50 under setting [1] was less than 100 nM.
`O=C(O)c1[nH]nnc1Sc1ccc(-c2ccc(N3CCCCC3)c(Cl)c2)cc1` [Compound 376, 4-((3′-chloro-4′-(piperidin-1-yl)-[1,1′-biphenyl]-4-yl)thio)-1H-1,2,3-triazole-5-carboxylic acid 2,2,2-trifluoroacetate]: the IC50 under setting [2] is less than 100 nM.
For the compound `O=C(O)c1[nH]nnc1CS[C@H]1CC[C@@H](c2cc(Cl)cc(Cl)c2)CC1` [Compound 377, 4-((((cis)-4-(3,5-dichlorophenyl)cyclohexyl)thio)methyl)-1H-1,2,3-triazole-5-carboxylic acid], the IC50 under setting [2] was less than 100 nM.
With `O=C(O)c1[nH]nnc1O[C@H]1CC[C@@H](c2ccc(N3CCCCC3=O)cc2)CC1` [Compound 379, 4-(((cis)-4-(4-(2-oxopiperidin-1-yl)phenyl)cyclohexyl)oxy)-1H-1,2,3-triazole-5-carboxylic acid], the IC50 under setting [2] is less than 100 nM.
`O=C(O)c1[nH]nnc1Oc1cccc(OC2CCCCC2)c1` [Compound 380, 4-(3-(cyclohexyloxy)phenoxy)-1H-1,2,3-triazole-5-carboxylic acid 2,2,2-trifluoroacetate]: the IC50 under setting [2] is less than 100 nM.
The same measure, in the same setting: then `O=C(O)c1[nH]nnc1Oc1ccc(Cl)c(OC2CCCC2)c1` [Compound 381, 4-(4-chloro-3-(cyclopentyloxy)phenoxy)-1H-1,2,3-triazole-5-carboxylic acid 2,2,2-trifluoroacetate], with less than 100 nM; and `O=C(O)c1[nH]nnc1Sc1cccc(OC2CCCCC2)c1` [Compound 382, 4-((3-(cyclohexyloxy)phenyl)thio)-1H-1,2,3-triazole-5-carboxylic acid 2,2,2-trifluoroacetate], with 100 to 1000 nM.
Still for that read-out and setting: next, `O=C(O)c1[nH]nnc1CSC1CCN(c2cc(Cl)ccc2Cl)CC1` [Compound 383, 4-(((1-(2,5-dichlorophenyl)piperidin-4-yl)thio)methyl)-1H-1,2,3-triazole-5-carboxylic acid 2,2,2-trifluoroacetate]: less than 100 nM.
The same measure, in the same setting: next, `O=C(O)c1[nH]nnc1CSC1CCN(c2ccc(Cl)c(Cl)c2)CC1` [Compound 384, 4-(((1-(3,4-dichlorophenyl)piperidin-4-yl)thio)methyl)-1H-1,2,3-triazole-5-carboxylic acid 2,2,2-trifluoroacetate]: less than 100 nM.
In the case of `O=C(O)c1[nH]nnc1SC1CCN(c2cc(Cl)ccc2OC(F)(F)F)CC1` [Compound 386, 4-((1-(5-chloro-2-(trifluoromethoxy)phenyl)piperidin-4-yl)thio)-1H-1,2,3-triazole-5-carboxylic acid 2,2,2-trifluoroacetate], under setting [2], the IC50 was less than 100 nM.
Consider `O=C(O)c1[nH]nnc1Oc1ccc(-c2ccc(Cl)cc2)c(OCC2CCCC2)c1` [Compound 387, 4-((4′-chloro-2-(cyclopentylmethoxy)-[1,1′-biphenyl]-4-yl)oxy)-1H-1,2,3-triazole-5-carboxylic acid 2,2,2-trifluoroacetate], for which, under setting [2], the IC50 is less than 100 nM.
On to `O=C(O)c1[nH]nnc1Oc1ccc(C2CCN(C3CCCCC3)CC2)cc1` [Compound 388, 4-(4-(1-cyclohexylpiperidin-4-yl)phenoxy)-1H-1,2,3-triazole-5-carboxylic acid 2,2,2-trifluoroacetate], for which the IC50 under setting [2] fell in the range of 1000 to 10000 nM.
On to `N#Cc1ccc(Oc2nn[nH]c2C(=O)O)cc1OCc1ccc(F)cc1` [Compound 390, 4-(4-cyano-3-((4-fluorobenzyl)oxy)phenoxy)-1H-1,2,3-triazole-5-carboxylic acid], for which the IC50 under setting [2] is less than 100 nM.
As for `N#Cc1ccc(-c2ccc(Oc3nn[nH]c3C(=O)O)cc2Cl)cc1` [Compound 394, 4-((2-chloro-4′-cyano-[1,1′-biphenyl]-4-yl)oxy)-1H-1,2,3-triazole-5-carboxylic acid], under setting [2], the IC50 was less than 100 nM.
As for `O=C(O)c1[nH]nnc1O[C@H]1CC[C@H](c2cc(OC(F)(F)F)ccc2Cl)CC1` [Compound 395, 4-(((trans)-4-(2-chloro-5-(trifluoromethoxy)phenyl)cyclohexyl)oxy)-1H-1,2,3-triazole-5-carboxylic acid], the IC50 under setting [2] is less than 100 nM.
On the same count and under the same terms, then `O=C(O)c1[nH]nnc1O[C@H]1CC[C@@H](c2cc(OC(F)(F)F)ccc2Cl)CC1` [Compound 396, 4-(((cis)-4-(2-chloro-5-(trifluoromethoxy)phenyl)cyclohexyl)oxy)-1H-1,2,3-triazole-5-carboxylic acid], with less than 100 nM; and `NC(=O)c1ccc(-c2ccc(Oc3nn[nH]c3C(=O)O)cc2)cc1` [Compound 397, 4-((4′-carbamoyl-[1,1′-biphenyl]-4-yl)oxy)-1H-1,2,3-triazole-5-carboxylic acid], with less than 100 nM; and `O=C(O)c1[nH]nnc1Sc1ccc(-c2ccc(Cl)cc2)c(OCC2CCCC2)c1` [Compound 398, 4-((4′-chloro-2-(cyclopentylmethoxy)-[1,1′-biphenyl]-4-yl)thio)-1H-1,2,3-triazole-5-carboxylic acid 2,2,2-trifluoroacetate], with less than 100 nM.
Same read-out and setting: then `O=C(O)c1[nH]nnc1Oc1ccc(Cl)c(OC2CCCCC2)c1` [Compound 399, 4-(4-chloro-3-(cyclohexyloxy)phenoxy)-1H-1,2,3-triazole-5-carboxylic acid 2,2,2-trifluoroacetate], with less than 100 nM; and `O=C(O)c1[nH]nnc1O[C@H]1CC[C@H](c2ccc(-n3cnnc3)cc2)CC1` [Compound 403, 4-(((trans)-4-(4-(4H-1,2,4-triazol-4-yl)phenyl)cyclohexyl)oxy)-1H-1,2,3-triazole-5-carboxylic acid], with less than 100 nM.
For `N#Cc1ccc([C@H]2C[C@H](Oc3nn[nH]c3C(=O)O)C2)cc1` [Compound 404, 4-((trans)-3-(4-cyanophenyl)cyclobutoxy)-1H-1,2,3-triazole-5-carboxylic acid 2,2,2-trifluoroacetate], the IC50 under setting [2] was less than 100 nM.
Turning to `O=C(O)c1[nH]nnc1O[C@H]1CC[C@H](c2ccc(-n3cncn3)cc2)CC1` [Compound 405, 4-(((trans)-4-(4-(1H-1,2,4-triazol-1-yl)phenyl)cyclohexyl)oxy)-1H-1,2,3-triazole-5-carboxylic acid], the IC50 under setting [2] was less than 100 nM.
On the same count and under the same terms, next, `O=C(O)c1[nH]nnc1O[C@H]1CC[C@H](c2ccc3ncccc3c2)CC1` [Compound 409, 4-(((trans)-4-(quinolin-6-yl)cyclohexyl)oxy)-1H-1,2,3-triazole-5-carboxylic acid 2,2,2-trifluoroacetate]: less than 100 nM.
`O=C(O)c1[nH]nnc1S[C@H]1CC[C@H](c2ccc3ncccc3c2)CC1` [Compound 410, 4-(((trans)-4-(quinolin-6-yl)cyclohexyl)thio)-1H-1,2,3-triazole-5-carboxylic acid 2,2,2-trifluoroacetate]: under setting [2], the IC50 is less than 100 nM.
Turning to `O=C(O)c1[nH]nnc1S[C@H]1CC[C@H](c2cc(OC(F)(F)F)ccc2Cl)CC1` [Compound 411, 4-(((trans)-4-(2-chloro-5-(trifluoromethoxy)phenyl)cyclohexyl)thio)-1H-1,2,3-triazole-5-carboxylic acid], the IC50 under setting [2] is less than 100 nM.
The same measure, in the same setting: next, `O=C(O)c1[nH]nnc1O[C@H]1CC[C@H](c2ccc(N3CCCC3=O)cc2)CC1` [Compound 412, 4-(((trans)-4-(4-(2-oxopyrrolidin-1-yl)phenyl)cyclohexyl)oxy)-1H-1,2,3-triazole-5-carboxylic acid]: less than 100 nM; `CN(C)C(=O)c1ccc([C@H]2CC[C@H](Oc3nn[nH]c3C(=O)O)CC2)cc1` [Compound 414, 4-(((trans)-4-(4-(dimethylcarbamoyl)phenyl)cyclohexyl)oxy)-1H-1,2,3-triazole-5-carboxylic acid 2,2,2-trifluoroacetate]: less than 100 nM.
For `O=C(O)c1[nH]nnc1O[C@H]1CC[C@H](c2ccc(C(=O)N3CCOCC3)cc2)CC1` [Compound 416, 4-(((trans)-4-(4-(morpholine-4-carbonyl)phenyl)cyclohexyl)oxy)-1H-1,2,3-triazole-5-carboxylic acid 2,2,2-trifluoroacetate], the IC50 under setting [2] was less than 100 nM.
For `O=C(O)c1[nH]nnc1O[C@H]1CC[C@H](c2ccc(C(=O)N3CCCCC3)cc2)CC1` [Compound 417, 4-(((trans)-4-(4-(piperidine-1-carbonyl)phenyl)cyclohexyl)oxy)-1H-1,2,3-triazole-5-carboxylic acid 2,2,2-trifluoroacetate], under setting [2], the IC50 was less than 100 nM.
